Where two headings read alike, the source gives them in different places.
Columns and labels:
[1] = test system: grass carp PRL promoter (pPRL(−1156).Luc) in αT3-1 cells; assay type: cell-based, grass carp (promoter); rat (αT3-1 cells, as printed); conditions: 0.1–1000 nM, 24 hr, n = 4
Experimental: The cells were then cultured for 18 hr recovery before drug treatment. (A) Time course analysis on the effect of oPACAP38 (6–48 hrs) on grass carp PRL promoter activity in αT3-1 cells. (B) αT3-1 cells over-expressed pPRL(−1156).LUC were treated for 24 hrs with increasing doses of oPACAP38. Effects of PACAP and VIP antagonists on PACAP-induced PRL mRNA expression were also investigated. In these experiments, αT3-1 cells over-expressed pPRL(−1156).LUC were challenged with oPACAP38 (10 nM, 24 hr) in the presence or absence of (C) the PACAP antagonist PACAP6-38 (10 nM) or (D) VIP antagonist (4-Cl-D-Phe6, Leu17)VIP (“VIP-R antagonist”, 100 nM).
After 18 h recovery, the cells were incubated with respective drugs. (A) αT3-1 cells over-expressed pPRL(−1156).LUC were treated for 24 hrs with increasing doses of cpt-cAMP (1–100 μM). (B) αT3-1 cells over-expressed pPRL(−1156).LUC were treated for 24 hrs with increasing doses of Forskolin (10–1000 nM). Effects of cAMP/PKA inhibitors on PACAP-induced PRL mRNA expression were then investigated. αT3-1 cells over-expressed pPRL(−1156).LUC were challenged with oPACAP38 (10 nM, 24 hr) in the presence or absence of (C) AC inhibitor MDL12330A (10 μM) or (D) PKA blocker H89 (10 μM).
After 18 h recovery, the cells were incubated with respective drugs. The cells were treated for 24 hr with increasing doses of (A) Ca^2+ ionophore A23187 or (B) L-type VSCC activator Bay K8644. Inhibiting extracellular Ca^2+ entry on PRL mRNA expression in carp pituitary cells was examined. In this study, αT3-1 cells over-expressed pPRL(−1156).LUC were treated with (C) oPACAP38 (10 nM, 24 hrs) or (D) Forskolin (100 nM, 24 hrs) in the Ca^2+-free medium (with different doses of EGTA).
After 18 h recovery, the cells were incubated with respective drugs.

PAC1 receptors = conditions: cited from earlier work
Excerpt: (§1) PACAP and vasoactive intestinal peptide (VIP) are members of the glucagon/secretin peptide family and have been reported to play roles in PRL regulation. […] In contrast to VIP, the biological actions of PACAP on ...

[2] = test system: PRL gene expression in GH4C1 cells; conditions: cited from earlier work
Excerpt: as §1

[3] = test system: PRL promoter in GH3 cells; conditions: cAMP-dependent; cited from earlier work
Excerpt: as §1

[4] = test system: PRL secretion / PRL gene expression; conditions: mammals, cited from earlier work
Excerpt: as §1

[5] = test system: MAPK in SH-SY5Y neuroblastoma cells; conditions: human SH-SY5Y neuroblastoma cells; cited from earlier work
Excerpt: (§2) Given that PACAP has been reported to activate MAPK (e.g., in human SH-SY5Y neuroblastoma cells)[24], and PI3K-dependent cascades (e.g., in human neutrophils)[25], the functional role of MAPK and PI3K in PACAP-induced grass carp promoter activity were also examined. […] However, parallel treatment with the PI3K inhibi ...

[6] = test system: PI3K-dependent cascades in neutrophils; conditions: human neutrophils; cited from earlier work
Excerpt: as §2

ERK in GH3 cells = conditions: cited from earlier work
Excerpt: (§3) In primary pituitary cells, PRL production induced by PACAP via functional coupling of cAMP/PKA−, Ca^2+/CaM−, and MAPK-dependent cascades. At the transcription level, cAMP/PKA and Ca^2+/CaM/CaM-II pathways are consistently involved in the PACAP regulation on PRL promoter activity. In mammalian cell models, e.g., in human SH-SY5Y neuroblastoma cells, functional coupling of MAPK (e.g., Erk1/2 and P38^MAPK) with cAMP-dependent mechanism has been reported. […] However, in our studies with αT3-1 cells, the inhibitors f ...

ERK in αT3–1 cells = conditions: cited from earlier work
Excerpt: as §3

[7] = test system: cAMP production in αT3-1 cells; conditions: via PAC1 receptors; cited from earlier work
CREB = conditions: mammalian cell models; via cAMP/PKA, cAMP/ERK and/or PLC/PKC; cited from earlier work
Excerpt: CREB is a member of the leucine zipper transcription factors and well-known to be involved in the activation of cAMP-inducible genes. […] Expression of a dominant-negative form of CREB (MCREB) inhibited basal and Forskolin-induced PRL promoter activity and PRL mRNA expression in rat lactotrophs ...

[8] = test system: pCREB in grass carp pituitary cells; assay: Western blot of pCREB in primary grass carp pituitary cells; conditions: oPACAP38, 24 hrs

## pituitary adenylate cyclase-activating peptide [PACAP]
[1]
  concentration of maximal response, luciferase activity: 1000 nM
  dose dependence of luciferase activity expression: up-regulate luciferase activity expression in a dose-dependent manner
[1]; read-out: EC50 value, luciferase activity (PRL promoter activity)
  EC50: 4.5 nM
PAC1 receptors
  affinity/specificity at PAC1 receptors: specific for PACAP
[2]
  effect on PRL gene expression: stimulatory effects
[3]
  effect on PRL promoter activity: up-regulate PRL promoter activity
[4]; ref 9, 13
  effect on PRL secretion: stimulatory
[4]; ref 14
  effect on PRL secretion: inhibitory
[4]; ref 15, 16
  effect on PRL secretion: no effect
[5]
  MAPK activation: activate MAPK
[6]
  activation of PI3K-dependent cascades: activate
ERK in GH3 cells
  ERK activation: triggered ERK activation
ERK in αT3–1 cells
  ERK activation: stimulates ERK activation
[7]
  cAMP production: induced
CREB
  CREB phosphorylation: trigger CREB phosphorylation
[8]
  CREB phosphorylation: significantly enhanced CREB phosphorylation

Reference: article PMC5854708, “Grass Carp Prolactin Gene: Structural Characterization and Signal Transduction for PACAP-induced Prolactin Promoter Activity” (Scientific Reports, 2018)
